Experimental data published in the supplement of paper PMC10307832.

Assays:
Assay in all cases: relative viability (nuclei count vs DMSO), 5 days (fraction); higher = more cells survive
Trametinib + Pictilisib = compound: CC(=O)Nc1cccc(-n2c(=O)n(C3CC3)c(=O)c3c(Nc4ccc(I)cc4F)n(C)c(=O)c(C)c32)c1 [Trametinib] + CS(=O)(=O)N1CCN(Cc2cc3nc(-c4cccc5[nH]ncc45)nc(N4CCOCC4)c3s2)CC1 [Pictilisib] (partner 1 µM)
Procedure, shortened: (§1)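 After 5 days of treatment, lung cancer cells in 1536-well plates were fixed and stained in a single step (final 0.05% Triton X-100, 1% formaldehyde, 1 ug/ml Hoechst) and their nuclei counted on 4× images. Treatment had been applied by pin tool the day after seeding as one drug alone or as a fixed anchor-drug dose with five library-drug doses (not always all listed) in √10 steps. Relative viability is the nuclei count of treated wells divided by that of vehicle wells, and values are medians of duplicate plates.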

Trametinib + Linsitinib = compound: CC(=O)Nc1cccc(-n2c(=O)n(C3CC3)c(=O)c3c(Nc4ccc(I)cc4F)n(C)c(=O)c(C)c32)c1 [Trametinib] + C[C@]1(O)C[C@@H](c2nc(-c3ccc4ccc(-c5ccccc5)nc4c3)c3c(N)nccn32)C1 [Linsitinib] (partner 1 µM)
Procedure, shortened: as §1

[1] = compound: CN1C=C(C2=CC=CC=C21)/C=C\3/C4=C(C=CC=N4)NC3=O + COc1cccc2cc(-c3nc([C@H]4CC[C@H](C(=O)O)CC4)n4ncnc(N)c34)[nH]c12 [OSI-027] (partner 0.5 µM)
Procedure, shortened: as §1

[2] = compound: CN1C=C(C2=CC=CC=C21)/C=C\3/C4=C(C=CC=N4)NC3=O + Nc1ncn([C@H]2C[C@H](O)[C@@H](CO)O2)c(=O)n1 [Decitabine] (partner 2 µM)
Procedure, shortened: as §1

| Cell Line | relative viability (Trametinib + Pictilisib; first compound 0.0025 µM) | relative viability (Trametinib + Pictilisib; first compound 0.007906 µM) | relative viability (Trametinib + Pictilisib; first compound 0.025 µM) | relative viability (Trametinib + Pictilisib; first compound 0.07906 µM) | relative viability (Trametinib + Pictilisib; first compound 0.25 µM) | relative viability (Trametinib + Linsitinib; first compound 0.0025 µM) | relative viability (Trametinib + Linsitinib; first compound 0.007906 µM) | relative viability (Trametinib + Linsitinib; first compound 0.025 µM) | relative viability (Trametinib + Linsitinib; first compound 0.07906 µM) | relative viability (Trametinib + Linsitinib; first compound 0.25 µM) | relative viability ([1]; first compound 0.02 µM) | relative viability ([1]; first compound 0.06325 µM) | relative viability ([1]; first compound 0.2 µM) | relative viability ([1]; first compound 0.6325 µM) | relative viability ([1]; first compound 2 µM) | relative viability ([2]; first compound 0.02 µM) | relative viability ([2]; first compound 0.06325 µM) | relative viability ([2]; first compound 0.2 µM) | relative viability ([2]; first compound 0.6325 µM) | relative viability ([2]; first compound 2 µM) |
| --- | --- | --- | --- | --- | --- | --- | --- | --- | --- | --- | --- | --- | --- | --- | --- | --- | --- | --- | --- | --- |
| NCI-H661 | 0.377 | 0.426 | 0.222 | 0.273 | 0.257 | 0.537 | 0.499 | 0.567 | 0.392 | 0.403 | 0.751 | 0.689 | 0.722 | 0.676 | 0.76 | 0.594 | 0.562 | 0.496 | 0.564 | 0.555 |
| CAL-12T | 0.348 | 0.29 | 0.271 | 0.279 | 0.318 | 0.79 | 0.607 | 0.484 | 0.428 | 0.341 | 0.628 | 0.47 | 0.525 | 0.645 | 0.53 |  |  |  |  |  |
| HARA | 0.384 | 0.342 | 0.131 | 0.207 | 0.213 | 0.757 | 0.736 | 0.673 | 0.535 | 0.237 | 0.539 | 0.449 |  | 0.505 | 0.586 | 0.373 | 0.477 |  | 0.597 | 0.524 |
| NCI-H596 | 0.367 | 0.316 | 0.338 | 0.314 | 0.33 | 1.04 | 0.851 | 0.769 | 0.774 | 0.76 | 0.656 | 0.764 | 0.566 | 0.692 | 0.633 | 1.03 | 1.06 | 0.958 | 1.88 | 1.81 |
| LU99A | 0.279 | 0.318 | 0.217 | 0.197 | 0.197 | 0.593 | 0.522 | 0.441 | 0.47 | 0.291 | 0.298 | 0.303 | 0.282 | 0.255 | 0.299 | 0.855 | 0.877 | 0.902 | 0.848 | 0.842 |
| LC-2-ad | 0.412 | 0.444 | 0.237 | 0.216 | 0.195 | 0.871 | 0.716 | 0.729 | 0.502 | 0.381 | 0.81 | 0.811 | 0.687 | 0.803 | 0.724 | 0.772 | 0.826 | 0.783 | 0.861 | 0.817 |
| NCI-H1650 | 0.608 | 0.61 | 0.448 | 0.364 | 0.113 |  |  |  |  |  | 0.55 | 0.541 | 0.437 | 0.458 | 0.539 | 0.419 | 0.427 | 0.378 | 0.385 | 0.45 |
| NCI-H1915 | 0.963 | 0.466 | 0.317 | 0.287 | 0.24 | 1.14 | 1.05 | 0.671 | 0.674 | 0.278 | 0.621 | 0.635 | 0.665 | 0.673 | 0.761 | 0.242 | 0.258 | 0.287 | 0.573 | 0.53 |
| ABC-1 | 0.552 | 0.56 | 0.363 | 0.458 | 0.28 | 0.673 | 0.462 | 0.537 | 0.421 | 0.41 | 0.683 | 0.461 | 0.273 | 0.4 | 0.533 | 1.3 | 0.941 | 0.829 | 0.909 | 1.15 |
| HCC-44 | 0.581 | 0.428 | 0.276 | 0.291 | 0.272 | 0.734 | 0.592 | 0.334 | 0.43 | 0.321 | 0.478 | 0.486 |  | 0.455 | 0.457 | 0.877 | 0.938 | 0.95 | 0.962 | 0.838 |
| HCC-78 | 0.205 | 0.154 | 0.185 | 0.152 | 0.212 | 0.543 | 0.323 | 0.314 | 0.354 | 0.36 | 0.368 | 0.335 |  | 0.392 | 0.35 | 0.557 | 0.588 | 0.652 | 0.614 | 0.65 |
| LXF-289 | 0.674 | 0.618 | 0.424 | 0.388 | 0.264 | 0.878 | 0.818 | 0.698 | 0.628 | 0.563 | 0.857 | 0.763 | 0.715 | 0.731 | 0.745 | 0.403 | 0.338 | 0.425 | 0.396 | 0.381 |
| 201T | 0.653 | 0.625 | 0.542 | 0.71 | 0.615 | 1.01 | 1.02 | 0.863 | 0.959 | 0.778 | 0.773 | 0.366 | 0.626 | 0.835 | 0.422 | 0.857 | 0.891 | 0.859 | 0.885 | 0.917 |
| NCI-H1734 | 0.439 | 0.448 |  | 0.362 | 0.299 | 0.845 | 0.739 |  | 0.788 | 0.613 | 0.581 | 0.631 |  | 0.68 | 0.565 | 0.482 | 0.535 |  | 0.515 | 0.499 |
| NCI-H1623 |  |  |  |  |  |  |  |  |  |  | 0.371 | 0.404 | 0.359 | 0.38 | 0.379 |  |  |  |  |  |
| NCI-H2126 | 0.456 | 0.413 | 0.362 | 0.372 | 0.383 | 0.617 | 0.613 | 0.422 | 0.546 | 0.454 | 0.605 | 0.657 | 0.6 | 0.697 | 0.612 | 0.631 | 0.585 | 0.569 | 0.536 | 0.508 |
| LOU-NH91 | 0.469 | 0.497 | 0.479 | 0.45 | 0.353 | 0.864 | 0.801 | 0.771 | 0.735 | 0.526 | 0.728 | 0.688 | 0.696 | 0.63 | 0.7 | 0.77 | 0.799 | 0.771 | 0.713 | 0.788 |
